From patent publication US7691907B2, “Methods and composition based on discovery of metabolism of nitroglycerin” (priority 2002, dated 2010)
“Also recorded” adds a separate entry of the source. Where two headings read alike, the source gives them in different places.

Columns and labels:
patient = conditions: human, in vivo
[1] = target: T1, mtALDH isolated from mouse macrophage RAW 264.7 (Mus musculus, UniProt P47738); format: biochemical
T1 construct: Mouse macrophage RAW 264.7 cells were homogenized in a 30 mM phosphate buffer; endogenous in cells; host or cells: mouse macrophage RAW 264.7 cells (endogenous enzyme purified over DEAE-cellulose, Q-sepharose, Butyl-Sepharose and hydroxyapatite)
T1 sequence (P47738 20-519): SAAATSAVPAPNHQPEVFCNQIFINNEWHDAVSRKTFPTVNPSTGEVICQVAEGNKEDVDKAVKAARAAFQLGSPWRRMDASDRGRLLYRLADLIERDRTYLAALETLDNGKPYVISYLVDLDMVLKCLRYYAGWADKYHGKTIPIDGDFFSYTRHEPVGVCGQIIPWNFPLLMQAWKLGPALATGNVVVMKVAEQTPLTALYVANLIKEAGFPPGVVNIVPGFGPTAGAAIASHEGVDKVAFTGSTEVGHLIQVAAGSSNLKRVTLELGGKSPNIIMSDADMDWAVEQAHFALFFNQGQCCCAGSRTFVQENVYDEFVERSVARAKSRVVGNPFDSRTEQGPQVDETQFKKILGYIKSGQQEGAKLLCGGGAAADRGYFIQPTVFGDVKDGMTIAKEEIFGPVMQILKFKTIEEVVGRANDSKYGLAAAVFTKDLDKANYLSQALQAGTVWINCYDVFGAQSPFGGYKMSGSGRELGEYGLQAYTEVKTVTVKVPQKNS

[2] = target: T2, mouse mitochondria aldehyde dehydrogenase (mtALDH) purified from RAW264.7 cells (Mus musculus, UniProt P47738); test: GTN reductase activity of purified enzyme (1,2-GDN formation from [14C]GTN, TLC-LSS); format: biochemical; conditions: for restoration of catalytic activity lost upon removal of DTT by dialysis: purified enzyme after dialysis
T2 construct: Mouse macrophage RAW 264.7 cells were homogenized in a 30 mM phosphate buffer; endogenous in cells; host or cells: mouse macrophage RAW 264.7 cells (endogenous enzyme purified over DEAE-cellulose, Q-sepharose, Butyl-Sepharose and hydroxyapatite)
T2 sequence (P47738 20-519): T1 sequence (P47738 20-519)

[3] = system: organic nitrate ester reductase activity (mtALDH) in aorta rings; test: 1,2-GDN formation from GTN in aorta rings; format: cell-based, New Zealand white rabbits; conditions: for activity at 1000 µM: Oryctolagus cuniculus, read-out: 1,2-GDN generation in the aorta rings, % of control activity
mtALDH = target: T3, mtALDH (Oryctolagus cuniculus, UniProt G1SUY2); test: mtALDH activity in partially purified preparations of GTN tolerant aortic rings; format: biochemical, rabbit
T3 construct: from tissue; host or cells: thoracic aorta rings of New Zealand white rabbits, made GTN tolerant; partially purified preparation
T3 sequence (G1SUY2 1-521): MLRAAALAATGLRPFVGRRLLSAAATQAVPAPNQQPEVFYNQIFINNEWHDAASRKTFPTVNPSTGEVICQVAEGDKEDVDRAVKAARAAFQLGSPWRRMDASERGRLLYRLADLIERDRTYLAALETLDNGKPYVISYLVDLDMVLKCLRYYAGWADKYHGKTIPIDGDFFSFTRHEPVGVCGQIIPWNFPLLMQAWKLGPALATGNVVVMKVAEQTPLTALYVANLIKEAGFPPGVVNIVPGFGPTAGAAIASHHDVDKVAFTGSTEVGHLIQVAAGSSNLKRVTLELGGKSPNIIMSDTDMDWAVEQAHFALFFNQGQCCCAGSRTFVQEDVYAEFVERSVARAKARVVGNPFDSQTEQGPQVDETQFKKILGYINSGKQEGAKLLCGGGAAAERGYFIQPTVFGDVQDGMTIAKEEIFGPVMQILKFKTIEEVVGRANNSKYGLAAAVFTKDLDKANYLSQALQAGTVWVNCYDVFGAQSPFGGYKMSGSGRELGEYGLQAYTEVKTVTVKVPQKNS

[4] = system: rabbit thoracic aorta rings; test: tissue or blood; format: cell-based, New Zealand white rabbits; conditions: for EC50: Oryctolagus cuniculus, read-out: EC50 for GTN relaxation
[5] = system: cGMP accumulation in the aortic rings; test: cGMP accumulation in aortic rings; format: cell-based, New Zealand white rabbits; conditions: for effect on increase in cGMP produced by GTN: 1 μM for 1 minute
[6] = system: mitochondria isolated from RAW 264.7 cells; test: 1,2-GDN generation from GTN by mitochondria isolated from RAW 264.7 cells; format: biochemical, mouse
Procedure: During protein purification, the assay mixtures (1 ml samples) contained 100 mM KPi, pH7.5, 0.5 mM EDTA, 1 mM NADH, 1 mM NADPH, 0.1 or 1 μM [^14C]GTN and protein sample from column fractions. After incubation at 37° C. for 10 to 30 minutes, the reaction was stopped (by adding dry ice) and GTN and its metabolites were extracted by 3×4 ml ether, the ether phase was combined and the solvent was evaporated by a stream of nitrogen. The final volume was controlled to less than 100 μl in ethanol for subsequent thin layer chromatography (TLC) separation and liquid scintillation spectrometry counting, i.e., (TLC-LSS), to determine amount of [^14C]1,2-GDN, to select samples with enzymatic activity (i.e., 1,2-GDN producing activity).
At the end of the procedure, the protein had been purified to near homogeneity (90 fold), with a 14.4% overall yield; its estimated molecular weight on SDS gel is about 53 kDa. N-terminal sequence of 30 amino acid residues was obtained by Edman degradation and matched exactly with mouse mitochondria aldehyde dehydrogenase.

[7] = cited from earlier work
[8] = system: anesthetized rabbits (arterial blood pressure); test: Systemic hypotensive effects of GTN infusion in anesthetized rabbits; format: in vivo, New Zealand white rabbits; conditions: for effect on SNP or adenosine mediated hypotension: inhibitor (~5 mM) infused intravenously 20 minutes prior; for effect on hypotensive effects of GTN: inhibitor (~5 mM) infused intravenously 20 minutes prior to GTN
[9] = 1 mM, 20 minutes before 1 μM GTN, 5 minutes 37° C.

O=C(O)CCCC[C@@H](S)CCS (racemic) [DHLA, dihydrolipoic acid]
clinical outcome (patient; iv, 50 mg/kg): reverses tolerance and maintains mtALDH activity
activation of mtALDH to cause conversion of GTN to 1,2-GDN (FIG. 1) [1]: best activators

O[C@H](CS)[C@H](O)CS (racemic) [DTT, dithiothreitol]
dependence of 1,2-GDN formation by purified enzyme on added dithiol ([2]; purified enzyme): could only catalyze 1,2-GDN formation when dithiol
restoration of catalytic activity lost upon removal of DTT by dialysis [2]: fully restored
activation of mtALDH to cause conversion of GTN to 1,2-GDN (FIG. 1) [1]: best activators

O=C(O)CCCC[C@@H]1CCSS1 (racemic) [lipoic acid]
dependence of 1,2-GDN formation by purified enzyme on added dithiol ([2]; purified enzyme): could only catalyze 1,2-GDN formation when dithiol

O=NOC(CO)CO [2 glycerol mononitrite, 2-glycerol mononitrite]
angiography the following year (patient): no progression of atherosclerosis
clinical outcome (patient): relief of symptoms

O=[N+]([O-])OCC(CO[N+](=O)[O-])O[N+](=O)[O-] [GTN, glyceryl trinitrate]
decrease of reductase activity as measured by 1,2-GDN formation ([3]; GTN-tolerant rings compared to control): 60.4%
1,3-GDN formation from GTN ([2]; purified enzyme): below detection limits
rates of 1,2-GDN formation versus GTN concentration ([2]; purified enzyme, GTN 0.1 to 10 μM): linear
product ratio of 1,2-GDN/NOx (nitrite plus nitrate) ([2]; purified enzyme, n=3): 0.73±0.05
product ratio of 1,2-GDN/nitrite ([2]; purified enzyme, n=3): 0.83±0.14
activity of mtALDH (mtALDH): inhibited
EC50 ([4]; 0.5 h): 3760 ± 2050 nM
EC50 [4]: 22.6 ± 9.2 nM
cGMP accumulation from GTN treatment ([5]; GTN tolerant rings): abolished
1,2-GDN generation from GTN ([6]; mitochondria isolated from RAW 264.7 cells, 1 mM NADH/NADPH): 0.29 nmol/h/mg
1,2-GDN generation from GTN, residual activity ([6]; mitochondria-free supernatant): no residual activity
blood pressure after drop (patient): 100 mm Hg
solubility in glycerol [7]: sparingly soluble

O=[N+]([O-])O[C@@H]1CO[C@H]2[C@@H]1OC[C@@H]2O [Imdur]
cross-tolerance with nitroglycerin (patient): no cross-tolerance

N[C@@H](CCC(=O)N[C@@H](CSN=O)C(=O)NCC(=O)O)C(=O)O [S-nitrosoglutathione]
clinical outcome (patient): improvement of dyspnea and relief of angina; also recorded: relief of symptoms

O=C(O)CCP(CCC(=O)O)CCC(=O)O [TCEP, tris(2-carboxyethylphosphine)]
clinical outcome (patient): tolerance is reversed and angina resolves
activation of mtALDH to cause conversion of GTN to 1,2-GDN (FIG. 1) ([1]; 1 mM GTN, excess mtALDH, 37° C. 10-30 minutes, DTT 1 mM, DHLA 0.5 and 0.1 mM, TCEP 1 mM): best activators

NCCCNCCSP(=O)(O)O [amifostine]
clinical outcome (patient): resolution rectal pain
improvement in FEV 1 (patient): 12%

CCCCCO[N+](=O)[O-] [amyl nitrate]
clinical outcome (patient): improvement in dyspnea and symptoms of fatigue

CCN(CC)C(=S)SSC(=S)N(CC)CC [antibuse]
clinical outcome (patient; po): without headache or symptomatic hypotension

OC(O)C(Cl)(Cl)Cl [chloral hydrate]
activity at 1000 µM [3, 9]: 27.6%
increase of GTN EC50 by inhibitor/competitive substrate [4]: 8.9 fold
effect on increase in cGMP produced by GTN [5]: completely blocked
effect on SNP or adenosine mediated hypotension [8]: little or no effect
effect on hypotensive effects of GTN [8]: significantly attenuated
clinical outcome (patient): resolution of symptoms; also recorded: without a decline in blood pressure; also recorded: without a fall in blood pressure; also recorded: improvement in wheezing and shortness of breath
clinical outcome (patient; iv): left ventricular function is largely preserved
clinical outcome (patient; po): blood pressure is restored
systolic blood pressure after rise (patient; po): 160 mm Hg

N#CN [cyanamide]
activity at 1000 µM [3, 9]: 56.9%
increase of GTN EC50 by inhibitor/competitive substrate [4]: 4.9 fold
reduction of the cGMP increase produced by GTN ([5]; 100 μM-10 nM): 46%
effect on SNP or adenosine mediated hypotension [8]: little or no effect
effect on hypotensive effects of GTN [8]: significantly attenuated

CCON=O [ethyl nitrite]
clinical outcome (patient; iv): Anginal symptoms resolve
systolic blood pressure after fall (patient; iv): 120 mm Hg

Cc1cnc(C(=O)NCCc2ccc(S(=O)(=O)NC(=O)NC3CCCCC3)cc2)cn1 [glipizide]
clinical outcome (patient; iv): preservation of left ventricular function

N[C@@H](CCC(=O)N[C@@H](CS)C(=O)NCC(=O)O)C(=O)O [glutathione]
restoration of catalytic activity lost upon removal of DTT by dialysis [2]: not

O=CC[N+](=O)[O-] [nitroacetaldehyde]
clinical outcome (patient; 0.1 mg/kg): relief of dyspnea

[Cl-].[O-][N+](=S)CCCC[P+](c1ccccc1)(c1ccccc1)c1ccccc1 [thionitrobutyltriphenylphosphonium chloride]
clinical outcome (patient; iv, 15 mg/kg): relief of symptoms and enhanced sensitivity to nitroglycerin

acetaldehyde
1,2-GDN generation in the aorta rings, % of control activity [3, 9]: 52.5%
increase of GTN EC50 by inhibitor/competitive substrate [4]: 4.4 fold
effect on increase in cGMP produced by GTN [5]: completely blocked
clinical outcome (patient; iv): normalizing blood pressure

nitric oxide [NO solutions]
effect of preincubation with the mtALDH inhibitors on relaxation induced by this vasodilator [4]: did not attenuate relaxation
